Measurements: ChEMBL document CHEMBL1201862, “PubChem BioAssay data set” (2004)
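Five concentrations, 48 hours, 96-well plates. GI50 = concentration required for 50% inhibition of growth.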 Active and inactive are the calls of the source. No stated cut-off is given here; in the data, active = GI50 up to about 1.1 µM and inactive = higher.

How the values were obtained:
Test in all cases: inhibition of tumour cell growth, NCI panel, 48 h
[1] = system: HCC 2998
[2] = system: A498
[3] = system: TK-10
[4] = system: CCRF-CEM
[5] = system: SN12C
[6] = system: UACC-257
[7] = system: HCT-116
[8] = system: SR
[9] = system: HOP-62
[10] = system: SW-620
[11] = system: NCI-H522
[12] = system: A549
[13] = system: EKVX
[14] = system: RPMI-8226
[15] = system: HOP-92
[16] = system: KM12
[17] = system: MCF7
[18] = system: MOLT-4
[19] = system: HL-60
[20] = system: MDA-N

Row | SMILES | GI50 [1] | GI50 [2] | GI50 [3] | GI50 [4] | GI50 [5] | GI50 [6] | GI50 [7] | GI50 [8] | GI50 [9] | GI50 [10] | GI50 [11] | GI50 [12] | GI50 [13] | GI50 [14] | GI50 [15] | GI50 [16] | GI50 [17] | GI50 [18] | GI50 [19] | GI50 [20]
1 | CCC1=C(c2ccc(OC)cc2)CC[C@]2(CCNC2=O)[C@@H]1C | 28.4 µM (inactive) | 31.3 µM (inactive) | 35 µM (inactive) | 24.8 µM (inactive) | 37.8 µM (inactive) | 23.7 µM (inactive) | 23.6 µM (inactive) | 24.2 µM (inactive) | 51.2 µM (inactive) | 44.2 µM (inactive) | 18.3 µM (inactive) | 37.6 µM (inactive) | 28.1 µM (inactive) | 16.3 µM (inactive) | 40.7 µM (inactive) | 32 µM (inactive) | 21.9 µM (inactive) | 15.8 µM (inactive) | 51.3 µM (inactive) | 22.5 µM (inactive)
2 | COc1ccc(OC)c(CCc2cc(OC)ccc2OC)c1 | 3.79 µM (inactive) | 4.48 µM (inactive) | 3.42 µM (inactive) | 2.9 µM (inactive) | 6.98 µM (inactive) | 5.38 µM (inactive) | 0.59 µM (active) | 0.379 µM (active) | 3.73 µM (inactive) | 0.935 µM (active) | 1.39 µM (inactive) | 5.28 µM (inactive) | 7.53 µM (inactive) | 2.82 µM (inactive) | > 10 µM (inactive) | 0.12 µM (active) | 0.358 µM (active) | 1.91 µM (inactive) | 1.5 µM (inactive) | 0.234 µM (active)
3 | C[C@@H]1CCC([C@@H](C)[C@H]2CC[C@H]3[C@@H]4CC[C@H]5C[C@@H](O)CC[C@]5(C)[C@H]4CC[C@]23C)=NC1 | 6.52 µM (inactive) | > 70.1 µM (inactive) | 34.7 µM (inactive) | > 41.1 µM (inactive) | 8.59 µM (inactive) | 25.3 µM (inactive) | 6.43 µM (inactive) | 12 µM (inactive) | 13.4 µM (inactive) | 40.8 µM (inactive) | 3.96 µM (inactive) | 16.9 µM (inactive) | 12.4 µM (inactive) | 2.77 µM (inactive) | > 41.9 µM (inactive) | 5.06 µM (inactive) | 9.04 µM (inactive) | 13 µM (inactive) | 1.36 µM (inactive) | 9.53 µM (inactive)
4 | COc1ccc2c(c1)CC[C@@H]1[C@@H]2CC[C@]2(C)/C(=N/OCCN3CCCCC3)CC[C@@H]12 | 2.89 µM (inactive) | 6.38 µM (inactive) | 4.74 µM (inactive) | 3.28 µM (inactive) | 4.34 µM (inactive) | 2.55 µM (inactive) | 2.38 µM (inactive) | 2.44 µM (inactive) | 6.25 µM (inactive) | 5.11 µM (inactive) | 5.27 µM (inactive) | 5.35 µM (inactive) | 8.32 µM (inactive) | 2.62 µM (inactive) | 3.44 µM (inactive) | 3.61 µM (inactive) | 6.95 µM (inactive) | 3.06 µM (inactive) | 2.79 µM (inactive) | 2.33 µM (inactive)
5 | CC(C)[Si]1(C(C)C)OCC2OC(N3C(=O)NC(=O)C[C@@H]3C(O)c3ccccc3)CC2O[Si](C(C)C)(C(C)C)O1 (stereo partly drawn) | 2.05 µM (inactive) | 7.21 µM (inactive) | 9.89 µM (inactive) | 2.54 µM (inactive) | 3.86 µM (inactive) | 4.85 µM (inactive) | 4.36 µM (inactive) | 1.68 µM (inactive) | 11.9 µM (inactive) | 3.4 µM (inactive) | 3.18 µM (inactive) | 11.2 µM (inactive) | 8.2 µM (inactive) | 4.31 µM (inactive) | 7.26 µM (inactive) | 2.4 µM (inactive) | 3.92 µM (inactive) | 2.31 µM (inactive) | 2.65 µM (inactive) | 4.3 µM (inactive)
6 | COC(=O)N/N=C(/c1nc2ccc([N+](=O)[O-])cc2nc1O)C(O)c1ccc(OC)c(OC)c1 (stereo not drawn) | > 100 µM (inactive) | > 67.8 µM (inactive) | > 100 µM (inactive) | 37.8 µM (inactive) | > 100 µM (inactive) | 47.1 µM (inactive) | 97.1 µM (inactive) | 19.5 µM (inactive) | > 60.5 µM (inactive) | > 100 µM (inactive) | 40.5 µM (inactive) | > 100 µM (inactive) | > 100 µM (inactive) | 41.9 µM (inactive) | > 100 µM (inactive) | 49.9 µM (inactive) | 88.1 µM (inactive) | 33 µM (inactive) | > 68.5 µM (inactive) | > 100 µM (inactive)
7 | CC[C@@H](C)[C@H]([C@H](CC(=O)N1CCC[C@@H]1[C@@H](OC)[C@H](C)C(=O)N[C@H](Cc1ccccc1)c1nccs1)OC)N(C)C(=O)[C@H](NC(=O)[C@@H](C(C)C)N(C)C)C(C)C | 0.00029 µM (active) | 0.000228 µM (active) | 0.00181 µM (active) | – | 0.000486 µM (active) | 0.000262 µM (active) | 0.000125 µM (active) | 2.75e-05 µM (active) | 0.000193 µM (active) | 9.12e-05 µM (active) | < 0.01 µM (active) | 0.000121 µM (active) | 0.000277 µM (active) | 0.000143 µM (active) | 0.00104 µM (active) | 1.67e-05 µM (active) | < 0.01 µM (active) | 0.000229 µM (active) | 3.51e-05 µM (active) | < 0.01 µM (active)
8 | OC/C=C/[C@H](OCc1ccccc1)[C@H](/C=C/CO)OCc1ccccc1 | 50.2 µM (inactive) | > 100 µM (inactive) | 73.1 µM (inactive) | 20.1 µM (inactive) | 47.8 µM (inactive) | 75.2 µM (inactive) | 35.1 µM (inactive) | 18.8 µM (inactive) | 49.7 µM (inactive) | 39.9 µM (inactive) | 37.3 µM (inactive) | 30.3 µM (inactive) | 47.6 µM (inactive) | 23.1 µM (inactive) | 45.4 µM (inactive) | 41.8 µM (inactive) | 33.1 µM (inactive) | 13.7 µM (inactive) | – | 36 µM (inactive)
9 | S=C1SSC2N=CC=CC12 (stereo not drawn) | 24.7 µM (inactive) | 29.9 µM (inactive) | > 100 µM (inactive) | 5.66 µM (inactive) | > 100 µM (inactive) | > 100 µM (inactive) | 92.9 µM (inactive) | 45.4 µM (inactive) | – | > 100 µM (inactive) | 68.9 µM (inactive) | 47.1 µM (inactive) | > 100 µM (inactive) | 63.8 µM (inactive) | 74.1 µM (inactive) | 17.3 µM (inactive) | 36.7 µM (inactive) | 38.3 µM (inactive) | 40.5 µM (inactive) | > 100 µM (inactive)
10 | O=S(=O)(SC1=NCCN1)c1cccc2ccccc12 | > 10 µM (inactive) | 26.1 µM (inactive) | – | 21.8 µM (inactive) | 23 µM (inactive) | 28.5 µM (inactive) | 30.3 µM (inactive) | > 10 µM (inactive) | 31.3 µM (inactive) | 32.7 µM (inactive) | 14.4 µM (inactive) | 22.8 µM (inactive) | 30.1 µM (inactive) | 19.1 µM (inactive) | 36.8 µM (inactive) | 17.9 µM (inactive) | 30.9 µM (inactive) | 27.7 µM (inactive) | > 10 µM (inactive) | 18.7 µM (inactive)
11 | CC(=O)OCC1OC(N2C(C)=C(C(C)=O)C(c3ccc(Cl)cc3)C(C#N)=C2S)C(OC(C)=O)C(OC(C)=O)C1OC(C)=O (stereo not drawn) | 47.1 µM (inactive) | 38.2 µM (inactive) | 76.9 µM (inactive) | 44.1 µM (inactive) | 85.9 µM (inactive) | 48.8 µM (inactive) | 36.7 µM (inactive) | 28.2 µM (inactive) | > 100 µM (inactive) | 5.46 µM (inactive) | 32.4 µM (inactive) | 49.9 µM (inactive) | – | 37.9 µM (inactive) | 33.6 µM (inactive) | 79.8 µM (inactive) | 47 µM (inactive) | 18.6 µM (inactive) | 37.3 µM (inactive) | 42.5 µM (inactive)
12 | COc1ccc(/C=C2\CCCC(CN(C)C)C2=O)cc1 (stereo not drawn) | 6.71 µM (inactive) | 16.8 µM (inactive) | 3.36 µM (inactive) | 0.971 µM (active) | 2.56 µM (inactive) | 3.26 µM (inactive) | 1.63 µM (inactive) | 1.02 µM (active) | 17.5 µM (inactive) | 0.891 µM (active) | 1.37 µM (inactive) | 17.7 µM (inactive) | 10.2 µM (inactive) | 0.223 µM (active) | 4.35 µM (inactive) | 1.3 µM (inactive) | 0.638 µM (active) | 0.774 µM (active) | 0.618 µM (active) | 2.96 µM (inactive)
13 | CSc1c(C(=O)Nc2ccc(C)cc2)c(N)nn1-c1ccccc1 | 58.3 µM (inactive) | 23.1 µM (inactive) | 33.3 µM (inactive) | > 100 µM (inactive) | > 100 µM (inactive) | 54 µM (inactive) | 49.4 µM (inactive) | 9.89 µM (inactive) | 57.7 µM (inactive) | > 100 µM (inactive) | 71.4 µM (inactive) | 27.3 µM (inactive) | 49.4 µM (inactive) | > 100 µM (inactive) | 23.6 µM (inactive) | – | > 100 µM (inactive) | > 100 µM (inactive) | > 100 µM (inactive) | > 100 µM (inactive)
14 | O=C1c2scnc2-c2nccc3c2c1nc1ccccc13 [KUANONIAMINE A] | 1.15 µM (inactive) | 1.26 µM (inactive) | 1.46 µM (inactive) | 0.416 µM (active) | 1.4 µM (inactive) | 0.363 µM (active) | 0.272 µM (active) | 0.137 µM (active) | 1.04 µM (active) | 0.288 µM (active) | 0.0169 µM (active) | 1.51 µM (inactive) | 2.92 µM (inactive) | 1.37 µM (inactive) | 1.88 µM (inactive) | 1.41 µM (inactive) | 0.299 µM (active) | 0.469 µM (active) | – | 0.196 µM (active)
